Reference: patent publication US8962838B2, “Platinum complexes and their use” (Westfaelische Wilhelms-Universitaet Muenster, priority 2011, dated 2015)

Test system: HeLa S3 cells
Assay: Cytotoxicity experiments, percentage of viable cells by Casy-1 cell counter
Type: cell-based
Conditions: 24 h incubation
Protocol: Cytotoxicity Experiments: HeLa S3 cells were seeded into 12-well tissue culture dishes in a density of approximately 80000 cells per well. The logarithmically growing cells were cultured for 24 h in Ham's F12 nutrient mixture containing 10% fetal bovine serum, 100 U penicillin per mL and […] streptomycin per mL and incubated at 37° C. with 5% CO2 in air and 100% humidity until the Pt-complexes were added. The cytotoxicity of the Pt-complexes was elucidated by quantifying the percentage of viable cells. Cell viability was measured after 24 h Pt-complex incubation and trypsinizing of cells, by an automatic cell counter (Casy-1, Roche Innovatis AG). These measurements are based on non-invasive (dye-free) electrical current exclusion with signal evaluation via pulse area analysis and allow the structural integrity of cells (membrane integrity and cell death).

For C[S+](C)[O-] [DMSO], the “DMSO concentration at which no toxic effect was detectable” value was “Below 1.8%”, the cytotoxicity (2.5% DMSO) was “a high amount of viable Hela-S3 cells but still some dead cells were detected” and the cytotoxicity (DMSO concentration from 10% down to 5%) was “extremely toxic”.
